From patent US5670530A, “Anti-cancer composition comprising rhodacyanine compound and cyclodextrin” (Fuji Photo Film Co., Ltd., priority 1995, dated 1997) come the findings set out here.

Some results are limits rather than exact numbers.

A short description of data set [1]: Solubility of rhodacyanine compounds in human serum at 37° C.
The nature of data set [2]: Solubility of Compound 1 in rat serum with HP-β-CD (Example 2). It is filed as physicochemical. Conditions: HP-β-CD 0 to 45 w/v %, 30 minutes, 25° C. As for the experimental part:
(§1) Solutions of HP-β-CD in demineralized water having concentrations varying from 0 w/v % to 45 w/v % were prepared as described in EXAMPLE 1. […] The results obtained are shown graphically in FIGS. 1 and 2.

Data set [3] is described as follows: Solubility of Compound 1 in aqueous solution containing various solubilizers (Example 1). The format is physicochemical. Conditions: for solubility at 24 h: 25° C. The protocol:
Solubilizers, β-CD, polyethylene glycol 400 and Pluronic F60, were added to demineralized water respectively to prepare solutions having concentrations shown in TABLE 1. […] The test tubes were fixed in thermostatic bath controlled at 25° C. and allowed to stand for 24 hours.

Data set [4] can be described thus: Solubility of Compound 1 in fetal calf serum with HP-β-CD (Example 2). The format is physicochemical. To be noted: HP-β-CD 0 to 45 w/v %, 30 minutes, 25° C. As for the experimental part: as §1
Data set [5] concerns human colon carcinoma cells (CX-1). Description: Tumor inhibition in nude mice implanted with human colon carcinoma cells CX-1 (Example 8). It is filed as in vivo, human cells in nude mouse (Swiss nu/nu). To be noted: for Tumor Inhibition: day 1, 2, 4, 6, 7, 8, 9. As for the experimental part:
2,500,000 human colon carcinoma cells (CX-1) were injected subcutaneously into each nude mouse (Swiss nu/nu) obtained from Taconic Farm and the mice were randomly allocated into a control group (five mice) and treatment groups (five mice per group).
The anti-cancer compositions containing HP-β-CD were prepared using the following method. HP-β-CD (45 g) was mixed with 100 ml of sterilized, double distilled water and stirred for four hours. Each of the compounds to be tested (20 mg) was mixed with 10 ml of HP-β-CD solution and sonicated for 60 minutes in the dark. This solution was then diluted in 5% glucose to yield a final compound concentration of 0.5 mg/ml, and further sonicated for 60 minutes in the dark to assure that the compound was completely dissolved. The anti-cancer compositions not containing HP-β-CD were also prepared using the same method except that 5% glucose solution was used instead of the HP-β-CD solution.
The control group received an equivalent volume of 5% glucose solution.
When the growth of tumors in the control group reached the exponential phase and the size of the tumor was palpable (usually 20 to 30 days after tumor implantation), the experiments were terminated. Tumors in each mouse were excised and weighed using an analytical balance. Total tumor weight in each group from five mice was calculated. Per cent tumor inhibition between the treated group and the control group was then calculated for each group.

Data set [6] can be described thus: Solubility of Compound 1 in aqueous solutions of β-CD, HP-β-CD and γ-CD (Example 3). It is filed as physicochemical.
The nature of data set [7]: Precipitation of Compound 1 in rat blood with HP-β-CD (Example 5). Conditions: HP-β-CD concentration increases. It is filed as physicochemical.
A short description of data set [8]: Solubility of Compounds 2, 4 and 5 in aqueous solution containing various cyclodextrin compounds (Example 4). The format is physicochemical. Conditions: for Solubility in water with cyclodextrin compounds: β-CD, HP-β-CD, γ-CD. The protocol:
as §1
Aqueous solutions of β-CD, HP-β-CD and γ-CD were prepared and solubility of Compounds 2, 4 and 5 in each of the aqueous solutions having the concentration varing as shown in TABLE 2 was determined as described in EXAMPLE 2. For the purpose of comparison, solubility of Compounds 2, 4 and 5 in water was also determined.

Data set [9] has as its system human melanoma LOX. Put plainly: Survival of nude mice implanted with human melanoma LOX (Example 9). It is filed as in vivo, human cells in nude mice.

Turning to `CCn1c(=CC2=[N+](CC)CCS2)sc(=C2SC3=C(CCCC3)N2C)c1=O`, the solubility in [1] is above 1000 µg/mL.

`CCn1c(=CC2=[N+](CC)CCS2)sc(=C2Sc3ccccc3N2C)c1=O` came in with a solubility in [1] above 1000 µg/mL.

In [1], `CCn1c(=Cc2scc(C)[n+]2CC)sc(=C2Sc3ccccc3N2C)c1=O` had a solubility above 1000 µg/mL.

In turn, `CN1C(=c2sc(=Cc3oc4ccccc4[n+]3C)n(C)c2=O)Sc2ccccc21` gave a solubility in data set [1] of 300 µg/mL.

Compound `CCn1c(=Cc2sc3ccccc3[n+]2CC)sc(=CC=C2SC=C(C)N2C)c1=O` showed a solubility in data set [1] below 1000 µg/mL.

Compound `CCn1c(=Cc2oc3c4ccccc4ccc3[n+]2CC)sc(=C2Sc3ccccc3N2C)c1=O` had a solubility in [1] below 100 µg/mL.

As to `CCn1c(=Cc2sc3c4ccccc4ccc3[n+]2CC)sc(=CC=C2Sc3ccc4ccccc4c3N2C)c1=O` [Compound 1], the “Compound 1 dissolved in serum (FIGS. 1 and 2)” value was “much dissolved in the serums, depending on the increase in HP-β-CD concentration” in data set [2] and “much dissolved in the serums, depending on the increase in HP-β-CD concentration” in data set [4]. The solubility at 24 h in [3] (water only) was 1860 µg/mL; in data set [3] (water, peg 400 50%, organic solvent or mixture, Polyethylene glycol 400, 50 w/v %) it was 870 µg/mL; in data set [3] (water, Pluronic F60 0.02 w/v %), 3230 µg/mL; in data set [3] (water, Pluronic F60 0.2 w/v %), 3130 µg/mL; in [3] (water, β-CD 1.5 w/v %), 8170 µg/mL. In data set [3] (β-CD vs compound itself in water), the “increase of solubility in water by β-CD” value is 4.4 times. Besides, the “Tumor Inhibition” value in data set [5] (2 mg/kg i.p., HP-β-CD added) amounted to 48.8%; in [5] (2 mg/kg i.p., HP-β-CD non-added), 29.1%; in data set [5] (4 mg/kg i.p., HP-β-CD added) it was 30.2%; in [5] (4 mg/kg i.p., HP-β-CD non-added), 20.9%. Moreover, in data set [5] (solution containing HP-β-CD vs no HP-β-CD), the “tumor inhibition, with vs without HP-β-CD” value was “higher tumor inhibition than that containing no HP-β-CD”. The “Solubility in water with cyclodextrins (FIG. 3)” value in data set [6] (β-CD, HP-β-CD and γ-CD) was “all cyclodextrin compounds used improve solubility of Compound 1 in water”. For the same compound, the “Solubility in water with γ-CD (FIG. 3)” value in [6] (γ-CD) is “γ-CD greatly improves the solubility”. Moreover, in data set [7], the “precipitation of Compound 1 in blood” value was “effectively inhibited”.

As for `CCN1C(=CC=c2sc(=CC3=[N+](CC)CCS3)n(CC)c2=O)C=Cc2ccccc21` [Compound 2], in [8], the Solubility in water amounted to 0.03 mM/dl and the “Solubility in water with cyclodextrin compounds” value is recorded as “improved by all of the cyclodextrin compounds used”. The “Solubility in aqueous solution of CD” value in data set [8] (β-CD 0.80 mM/dl) worked out at 0.55 mM/dl.

For the compound `CCn1c(=C2CCC[n+]3c2sc2ccccc23)sc(=C2Sc3ccccc3N2C)c1=O` [Compound 4], the “Solubility in aqueous solution of CD” value in [8] (HP-β-CD 4.2 mM/dl) is recorded as 0.03 mM/dl. In data set [8], the Solubility in water came out at 0.001 mM/dl and the “Solubility in water with cyclodextrin compounds” value is recorded as “improved by all of the cyclodextrin compounds used”.

As for `CCn1c(=Cc2sc3c4ccccc4ccc3[n+]2CC)sc(=C2Sc3ccc4ccccc4c3N2C)c1=O` [Compound 5], in data set [8], the Solubility in water was ~ 0 mM/dl and the “Solubility in water with cyclodextrin compounds” value is “improved by all of the cyclodextrin compounds used”. Further, in data set [8] (γ-CD 1.0 mM/dl), the “Solubility in aqueous solution of CD” value was determined as 0.02 mM/dl.

With `CCn1c(=Cc2oc3ccccc3[n+]2CC)sc(=C2Sc3ccccc3N2C)c1=O` [Compound 7], the T/C in [9] (10 mg/kg i.p., HP-β-CD added, day 1, 4, 8, 12, 16, 21, 25) was 200%; in [9] (10 mg/kg i.p., HP-β-CD non-added, day 1, 4, 8, 12, 16, 21, 25) it was 175%.

In the case of `CCN1C(=CC=c2sc(=Cc3cc[n+](CC)c4ccccc34)n(CC)c2=O)C=Cc2ccccc21` [Compound 8], the T/C in [9] (20 mg/kg i.p., HP-β-CD added, day 1, 2, 3, 4, 8, 9) was found to be 227%; in data set [9] (20 mg/kg i.p., HP-β-CD non-added, day 1, 2, 3, 4, 8, 9), 183%.

`CCN1C(=CC=c2sc(=CC3=[N+](CC)CCS3)n(CC)c2=O)C=Cc2ccccc21` [drawing 16]: in [1], the solubility was below 100 µg/mL.

For `CCn1c(=Cc2oc3ccccc3[n+]2CC)sc(=C2Sc3ccccc3N2C)c1=O` [drawing 17], the solubility in data set [1] was below 100 µg/mL.

Turning to `CCN1C(=CC=c2sc(=Cc3cc[n+](CC)c4ccccc34)n(CC)c2=O)C=Cc2ccccc21` [drawing 20], in data set [1], the solubility is below 100 µg/mL.

With `CCn1c(=Cc2sc3c4ccccc4ccc3[n+]2CC)sc(=CC=C2Sc3ccc4ccccc4c3N2C)c1=O` [drawing 21], in [1], the solubility was below 100 µg/mL.
